The experiment relates to H2B. Description: Western blotting of H2B degradation, HeLa cells. It is filed as cell-based. On the technique in general: In western blotting, separated proteins are transferred to a membrane and probed.

Residues, ends and D or L forms follow the SMILES beside them. *: point of attachment. Cbz = O=C(OCc1ccccc1)*

`O=C1CCC(N2C(=O)c3ccccc3C2=O)C(=O)N1` (centres unmarked) [Thalidomide, thalidomide]: where the note is “coincubated or pretreated with Thalidomide 10 μM”, the “effect on H2B degradation by Tz-MitoFlag (100 μM, 24 h) and TP2T (10 nM, 24 h)” value is “inhibited”. For the molecule `CC(C)C[C@@H](C=O)NC(=O)[C@H](CC(C)C)NC(=O)[C@H](CC(C)C)NC(=O)OCc1ccccc1` [MG132] (Cbz-Leu-Leu-Leu-aldehyde), where the note is “coincubated or pretreated with MG132 10 μM”, the “effect on H2B degradation by Tz-MitoFlag (100 μM, 24 h) and TP2T (10 nM, 24 h)” value is listed as “no degradation of H2B”.
